These results are taken from the OPERA property sets (Mansouri et al. 2018).

The logP is a log measure of how a compound divides between an organic and an aqueous phase. The low end stands for lower lipophilicity, the high end for higher lipophilicity. `NNC(=O)Nc1ccccc1O` registered a logP of 0.33.

`COc1ccccc1NC(=O)NN` yielded a log partition coefficient (logP) of -0.15.

`COc1ccc(NC(=O)NN)cc1` showed a log partition coefficient (logP) of 0.17.

Compound `NNC(=O)Nc1ccc(Cl)cc1` registered a log partition coefficient (logP) of 0.87.

In turn, `NNC(=O)Nc1ccc([N+](=O)[O-])cc1` showed a logP of -0.18.

In turn, `NNC(=O)Nc1cccc(C(=O)O)c1` gave a logP of -0.16.

As for `NNC(=O)Nc1ccccc1`, the logP was 0.16.

As to `NNC(=O)Nc1ccccc1C(=O)O`, the logP was -0.49.

Compound `NNC(=O)Nc1ccc(C(=O)O)cc1` came in with a logP of -0.21.

Take `NNC(=O)Nc1ccccc1[N+](=O)[O-]`: the logP is -0.47.

As for `Cc1ccc(NC(=O)NN)cc1`, the log partition coefficient (logP) is 0.69.

Compound `Cc1cccc(NC(=O)NN)c1` returned a logP of 0.68.
